Assay results from the NIST ThermoML archive (doi:10.1021/acs.jced.8b00554).

Experiment: xn = mol fraction of the nth substance listed
Conditions: Liquid, Vibrating tube method

CCCCCCCCCC [decane] + CCCO
mass density [kg/m3]
Conditions | 353.15 K | 363.15 K
100 kPa, x2 = 0.1391 | – | 664.41
100 kPa, x2 = 0.1907 | – | 663.86
100 kPa, x2 = 0.3001 | – | 664.03
100 kPa, x2 = 0.4326 | – | 666.18
100 kPa, x2 = 0.6863 | – | 680.95
100 kPa, x2 = 0.8711 | – | 705.01
1000 kPa, x2 = 0.1907 | – | 665.28
1010 kPa, x2 = 0.1391 | – | 665.85
1010 kPa, x2 = 0.3001 | – | 666.15
1010 kPa, x2 = 0.6863 | – | 682.3
1010 kPa, x2 = 0.8711 | – | 706.22
1020 kPa, x2 = 0.4326 | – | 667.3
2000 kPa, x2 = 0.1391 | – | 667.06
2000 kPa, x2 = 0.1907 | – | 666.5
2000 kPa, x2 = 0.6863 | – | 683.55
2000 kPa, x2 = 0.8711 | – | 707.37
2020 kPa, x2 = 0.3001 | – | 667.4
2020 kPa, x2 = 0.4326 | – | 668.51
3000 kPa, x2 = 0.3001 | – | 668.59
3010 kPa, x2 = 0.1391 | – | 668.24
3010 kPa, x2 = 0.4326 | – | 669.77
3010 kPa, x2 = 0.6863 | – | 684.83
3020 kPa, x2 = 0.1907 | – | 667.69
3020 kPa, x2 = 0.8711 | – | 708.57
4010 kPa, x2 = 0.1391 | – | 669.44
4010 kPa, x2 = 0.1907 | – | 668.95
4010 kPa, x2 = 0.3001 | – | 669.83
4010 kPa, x2 = 0.6863 | – | 686.13
4010 kPa, x2 = 0.8711 | – | 709.79
4020 kPa, x2 = 0.4326 | – | 671.06
5000 kPa, x2 = 0.4326 | – | 672.31
5010 kPa, x2 = 0.1907 | – | 670.1
5010 kPa, x2 = 0.8711 | – | 711.06
5020 kPa, x2 = 0.1391 | – | 670.64
5020 kPa, x2 = 0.3001 | – | 671.07
5020 kPa, x2 = 0.6863 | – | 687.44
6010 kPa, x2 = 0.3001 | – | 672.31
6010 kPa, x2 = 0.8711 | – | 712.33
6020 kPa, x2 = 0.1391 | – | 671.83
6020 kPa, x2 = 0.1907 | – | 671.28
6020 kPa, x2 = 0.4326 | – | 673.61
6020 kPa, x2 = 0.6863 | – | 688.73
7010 kPa, x2 = 0.1907 | – | 672.49
7010 kPa, x2 = 0.6863 | – | 690.06
7020 kPa, x2 = 0.1391 | – | 673.03
7020 kPa, x2 = 0.3001 | – | 673.57
7020 kPa, x2 = 0.4326 | – | 674.92
7020 kPa, x2 = 0.8711 | – | 713.62
8000 kPa, x2 = 0.3001 | – | 674.82
8000 kPa, x2 = 0.4326 | – | 676.22
8000 kPa, x2 = 0.6863 | – | 691.39
8010 kPa, x2 = 0.1907 | – | 673.78
8020 kPa, x2 = 0.1391 | – | 674.3
8020 kPa, x2 = 0.8711 | – | 714.86
9000 kPa, x2 = 0.1391 | – | 675.46
9000 kPa, x2 = 0.3001 | – | 676.11
9000 kPa, x2 = 0.6863 | – | 692.72
9010 kPa, x2 = 0.1907 | – | 675
9010 kPa, x2 = 0.4326 | – | 677.52
9020 kPa, x2 = 0.8711 | – | 716.13
10000 kPa, x2 = 0.1391 | – | 676.67
10000 kPa, x2 = 0.1907 | – | 676.19
10010 kPa, x2 = 0.3001 | 690.11 | 677.41
10010 kPa, x2 = 0.6863 | – | 694.02
10010 kPa, x2 = 0.8711 | 731.37 | 717.4
10020 kPa, x2 = 0.1907 | 688.55 | –
10020 kPa, x2 = 0.4326 | – | 678.87
11000 kPa, x2 = 0.1391 | – | 677.93
11000 kPa, x2 = 0.6863 | 710.38 | –
11010 kPa, x2 = 0.3001 | 691.26 | 678.66
11010 kPa, x2 = 0.4326 | 694.72 | –
11010 kPa, x2 = 0.6863 | – | 695.33
11020 kPa, x2 = 0.1391 | 689.4 | –
11020 kPa, x2 = 0.1907 | 689.66 | 677.43
11020 kPa, x2 = 0.4326 | – | 680.14
11020 kPa, x2 = 0.8711 | 732.51 | 718.66
12000 kPa, x2 = 0.1391 | – | 679.09
12000 kPa, x2 = 0.1907 | – | 678.73
12000 kPa, x2 = 0.3001 | – | 679.92
12010 kPa, x2 = 0.1391 | 690.47 | –
12010 kPa, x2 = 0.1907 | 690.83 | –
12010 kPa, x2 = 0.4326 | 695.89 | 681.46
12010 kPa, x2 = 0.6863 | 711.53 | 696.59
12010 kPa, x2 = 0.8711 | 733.61 | 719.87
12020 kPa, x2 = 0.3001 | 692.38 | –
13000 kPa, x2 = 0.3001 | 693.53 | –
13000 kPa, x2 = 0.8711 | 734.68 | –
13010 kPa, x2 = 0.1391 | 691.56 | 680.3
13010 kPa, x2 = 0.1907 | – | 679.91
13010 kPa, x2 = 0.3001 | – | 681.16
13010 kPa, x2 = 0.4326 | – | 682.71
13010 kPa, x2 = 0.6863 | – | 697.91
13020 kPa, x2 = 0.1907 | 691.91 | –
13020 kPa, x2 = 0.4326 | 697.03 | –
13020 kPa, x2 = 0.6863 | 712.69 | –
13020 kPa, x2 = 0.8711 | – | 721.04
14000 kPa, x2 = 0.1907 | – | 681.11
14000 kPa, x2 = 0.4326 | – | 683.94
14010 kPa, x2 = 0.1391 | – | 681.47
14010 kPa, x2 = 0.1907 | 692.99 | –
14010 kPa, x2 = 0.3001 | – | 682.38
14020 kPa, x2 = 0.1391 | 692.62 | –
14020 kPa, x2 = 0.3001 | 694.63 | –
14020 kPa, x2 = 0.4326 | 698.13 | –
14020 kPa, x2 = 0.6863 | 713.81 | 699.14
14020 kPa, x2 = 0.8711 | 735.8 | 722.27
15000 kPa, x2 = 0.1907 | – | 682.24
15000 kPa, x2 = 0.4326 | – | 685.14
15000 kPa, x2 = 0.6863 | – | 700.32
15010 kPa, x2 = 0.3001 | – | 683.55
15010 kPa, x2 = 0.4326 | 699.22 | –
15010 kPa, x2 = 0.6863 | 714.9 | –
15010 kPa, x2 = 0.8711 | 736.86 | 723.44
15020 kPa, x2 = 0.1391 | 693.66 | 682.58
15020 kPa, x2 = 0.1907 | 694.05 | –
15020 kPa, x2 = 0.3001 | 695.7 | –
16000 kPa, x2 = 0.3001 | – | 684.7
16000 kPa, x2 = 0.4326 | – | 686.33
16010 kPa, x2 = 0.1391 | 694.64 | 683.66
16010 kPa, x2 = 0.1907 | 695.08 | 683.38
16010 kPa, x2 = 0.4326 | 700.29 | –
16010 kPa, x2 = 0.6863 | 715.98 | –
16010 kPa, x2 = 0.8711 | – | 724.56
16020 kPa, x2 = 0.3001 | 696.78 | –
16020 kPa, x2 = 0.6863 | – | 701.55
16020 kPa, x2 = 0.8711 | 737.89 | –
17000 kPa, x2 = 0.3001 | – | 685.86
17000 kPa, x2 = 0.4326 | 701.32 | –
17010 kPa, x2 = 0.1391 | – | 684.77
17010 kPa, x2 = 0.1907 | 696.15 | 684.57
17010 kPa, x2 = 0.3001 | 697.84 | –
17010 kPa, x2 = 0.4326 | – | 687.43
17010 kPa, x2 = 0.6863 | 717.03 | –
17020 kPa, x2 = 0.1391 | 695.67 | –
17020 kPa, x2 = 0.6863 | – | 702.7
17020 kPa, x2 = 0.8711 | 738.93 | 725.68
18000 kPa, x2 = 0.1391 | – | 685.82
18000 kPa, x2 = 0.1907 | – | 685.6
18000 kPa, x2 = 0.3001 | – | 686.93
18010 kPa, x2 = 0.4326 | 702.35 | –
18010 kPa, x2 = 0.6863 | 718.05 | 703.81
18010 kPa, x2 = 0.8711 | – | 726.78
18020 kPa, x2 = 0.1391 | 696.65 | –
18020 kPa, x2 = 0.1907 | 697.1 | –
18020 kPa, x2 = 0.3001 | 698.82 | –
18020 kPa, x2 = 0.4326 | – | 688.58
18020 kPa, x2 = 0.8711 | 739.92 | –
19000 kPa, x2 = 0.1391 | 697.56 | 686.79
19000 kPa, x2 = 0.4326 | – | 689.63
19000 kPa, x2 = 0.8711 | – | 727.82
19010 kPa, x2 = 0.1907 | 698.02 | 686.57
19010 kPa, x2 = 0.3001 | 699.8 | 687.98
19020 kPa, x2 = 0.4326 | 703.33 | –
19020 kPa, x2 = 0.6863 | 719.04 | 704.89
19020 kPa, x2 = 0.8711 | 740.89 | –
20000 kPa, x2 = 0.3001 | – | 688.93
20000 kPa, x2 = 0.4326 | 704.33 | –
20000 kPa, x2 = 0.6863 | 720.06 | –
20000 kPa, x2 = 0.8711 | 741.82 | 728.82
20010 kPa, x2 = 0.1391 | 698.43 | 687.72
20010 kPa, x2 = 0.1907 | 698.94 | 687.53
20010 kPa, x2 = 0.3001 | 700.68 | –
20010 kPa, x2 = 0.4326 | – | 690.72
20010 kPa, x2 = 0.6863 | – | 706
